Laboratory results taken from US9192610B2, “Use of quinazoline derivatives for neurodegenerative diseases” (CONSEJO SUPERIOR DE INVESTIGACIONES CIENTIFICAS, priority 2009, dated 2015).

Experiment: Antioxidant effect, ORAC-FL method (capacity to capture free radicals)
Conditions: 75 mM phosphate buffer pH 7.4, 37° C., compounds tested at 4 concentrations
Excerpt: Given that in many neurodegenerative diseases neuronal death occurs due to oxidative stress, the capacity of these compounds to capture free radicals has been evaluated using the ORAC methodology.
Determination is following the ORAC-FL method of Ou et al. partially adapted by BMG LABTECH (BMG LABTECH Application note 148 (2006): ORAC Assay on the FLUOstar OPTIMA to Determine Antioxidant Capacity. http://www.bmglabtech.com/application-notes/fluorescence-intensity/orac 148.cfm). The FLUOstar Optima (BMG Labtechnologies GmbH, Offenburg, Germany) plate reader was used with an excitation filter at 485 nm excitation and 520 nm emission. 2,2′-Azobis-(amidinopropane) dihydrochloride (AAPH), (±)-6-hydroxy-2,5,7,8-tetramethylchromane-2-carboxylic acid (trolox) and fluorescein (FL) are purchased from Sigma-Aldrich. The reaction is carried out in 75 mM phosphate buffer (pH 7.4) and a final reaction volume of 200 μL. The antioxidant (25 μL) and fluorescein (150 μL; 10 nM) are placed on black 96-well plates (96F untreat, Nunc™). The mixture is pre-incubated during 30 minutes at 37° C. afterwards rapidly adding a solution of AAPH (25 μL, 240 mM), using a multi-channel pipette. The microplate is rapidly placed on the reader and fluorescence is measured every 90 sec during 90 min. The 96-well plate is agitated automatically before each reading. The compounds are tested at 4 different concentrations (10-1 μ). A blank is also placed (FL+AAPH in phosphate buffer) and as reference compound four concentrations of trolox (10-1 μM). All reactions are carried out in duplicate, and at least three different tests per compound. Data are exported to an Excel spreadsheet (Microsoft), representing absorbance versus time and subsequently the area under curve is calculated following the formula (1) AUC=f1/f0+fi/f0+ . . . +f34/f0+(f35/f0) wherein: AUC=area under curve • f0=fluorescence measured at time 0 • fi=fluorescence measured at time t
The net AUC values of each compound are determined by subtracting from the AUC value of the compound the AUC value of the blank (FL+AAPH in phosphate buffer).
The measurement of antioxidant is expressed in trolox equivalents. Relative trolox equivalents are calculated according to formula (2): […]

SMILES	Antioxidant capacity, Trolox equivalents
S=c1[nH]c2ccccc2c(=S)n1-c1ccccc1 [Comp. 6, 3-phenyl-2,4-dithioxo-1,2,3,4-tetrahydroquinazoline]	0.46 Trolox equivalents
Cc1cccc2c(=O)n(-c3ccccc3Br)c(=S)[nH]c12 [Comp. 3, 3-(2-bromophenyl)-8-methyl-4-oxo-2-thioxo-1,2,3,4-tetrahydroquinazoline]	1.31 Trolox equivalents
CSc1nc2c(C)cccc2c(=O)n1-c1ccccc1Br [Comp. 5, 3-(2-bromophenyl)-8-methyl-2-methylthio-4-oxo-3,4-dihydroquinazoline]	Not to 10 μM
O=c1c2ccccc2[nH]c(=S)n1-c1c(F)cccc1F [Comp. 2, 3-(2,6-difluorophenyl)-4-oxo-2-thioxo-1,2,3,4-tetrahydroquinazoline]	Not to 10 μM
CSc1nc2ccccc2c(=S)n1-c1ccccc1 [Comp. 7, 3-phenyl-2-methylthio-4-thioxo-3,4-dihydroquinazoline]	0.37 Trolox equivalents
O=c1c2ccccc2[nH]c(=S)n1-c1ccccc1 [Comp. 1, 3-phenyl-4-oxo-2-thioxo-1,2,3,4-tetrahydroquinazoline]	1.19 Trolox equivalents
CSc1nc2c(C)cccc2c(=O)n1-c1c(F)cccc1F [Comp. 4, 3-(2,6-difluorophenyl)-8-methyl-2-methylthio-4-oxo-3,4-dihydroquinazoline]	0.13 Trolox equivalents

Experiment: not given
Conditions: commercial drugs used to validate the PAMPA assay; literature value; cited from earlier work

SMILES	Bibliography (described permeability)
CCn1cc(C(=O)O)c(=O)c2cc(F)c(N3CCNCC3)nc21 [Enoxacine]	1.8
CN(C)CCCN1c2ccccc2Sc2ccccc21 [Promazine]	8.1
